Earlier results as cited in patent US11491200B2, “Herbal compositions and methods for the prevention and treatment of nail infections” (Produits Naturels Mondias Inc., priority 2016, dated 2022).

Test system: onychomycosis
Details: mild-to-moderate onychomycosis; versus 3% for placebo

C=C1CCN([C@H](C)[C@](O)(Cn2cncn2)c2ccc(F)cc2F)CC1 [Jublia]
efficacy: 17%
